In US10932480B2, “Animal feed additive containing diurnosid and/or cestrumosid” (priority 2016, dated 2021):

System: broilers
Assay: Field test in broilers, diurnoside/cestrumoside plus vitamin D3 metabolites (Example 1)
Assay type: in vivo
Details: in combination with diurnoside or cestrumoside versus control groups with calcitriol or calcifediol alone, FIG. 1
Excerpt: In a commercial boiler feeding operation, five stalls each with approximate 43,000 animals were compared with regard to the incidence of osteochondrosis/dyschondroplasia in a field test. All the stalls were fed using conventional boiler fattening feed, distributed under the brand name GeflügelmastKorn® (Company: Garant Tiernahrung [Garant Animal Nutrition]), wherein no further additives were used in stall K1 (controls).
For stall K2 (control group calcitriol), a feed additive containing 20 ppm calcitriol in an amount of 150 ppm (based on feed with 88% dry solids) was mixed into the broiler fattening feed.
For stall K2 (control group calcifediol), a feed additive containing 200 ppm calcifediol in an amount of 150 ppm (based on feed with 88% dry solids) was mixed into the broiler fattening feed.
For stall V1 (experimental group with diurnoside plus calcitriol), the feed additive according to the invention, containing 100 ppm diurnoside and 10 ppm calcitriol was mixed into the boiler fattening feed in an amount of 150 ppm (based on feed with 88% dry solids).
For the stall V2 (experimental group with cestrumoside plus calcifediol), the feed additive according to the invention, containing 20 ppm cestrumoside and 100 ppm calcifediol in an amount of 150 ppm (based on feed with 88% dry solids) was mixed into the broiler fattening feed. […]

## C=C1/C(=C\C=C2/CCC[C@]3(C)[C@@H]([C@H](C)CCCC(C)(C)O)CC[C@@H]23)C[C@@H](O)C[C@@H]1O [calcitriol]
  effective doses for calcitriol and calcifediol: reduced by one-half

## C=C1CC[C@H](O)C/C1=C/C=C1\CCC[C@]2(C)[C@@H]([C@H](C)CCCC(C)(C)O)CC[C@@H]12 [calcifediol]
  effective doses for calcitriol and calcifediol: reduced by one-half
